The target in experiment [1] is T1, AidB (Escherichia coli, UniProt P33224).
T1 construct: predominantly tetramer in solution
T1 sequence (P33224 1-541): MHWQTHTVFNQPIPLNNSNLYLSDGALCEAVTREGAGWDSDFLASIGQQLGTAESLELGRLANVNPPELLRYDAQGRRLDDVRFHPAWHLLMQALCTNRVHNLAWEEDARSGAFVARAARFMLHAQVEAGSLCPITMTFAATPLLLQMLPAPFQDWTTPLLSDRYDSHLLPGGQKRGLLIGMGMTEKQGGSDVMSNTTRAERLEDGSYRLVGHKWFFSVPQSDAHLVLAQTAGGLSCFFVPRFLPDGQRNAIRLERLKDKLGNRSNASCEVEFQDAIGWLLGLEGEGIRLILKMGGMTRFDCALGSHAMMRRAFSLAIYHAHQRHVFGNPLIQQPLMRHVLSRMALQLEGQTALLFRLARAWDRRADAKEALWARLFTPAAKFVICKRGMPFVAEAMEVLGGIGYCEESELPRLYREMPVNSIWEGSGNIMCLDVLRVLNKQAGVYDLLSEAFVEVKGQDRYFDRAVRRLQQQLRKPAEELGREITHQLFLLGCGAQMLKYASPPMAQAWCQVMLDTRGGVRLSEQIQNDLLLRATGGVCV
The experiment can be described thus: UV-visible spectroscopy and redox potentiometry of bound flavin. It counts as binding. As to conditions: bound FAD of the purified protein; pH 8.0, 300 mM NaCl, anaerobic.

In experiment [2] the target is T1, AidB. Briefly: shift of flavin midpoint reduction potential (xanthine/xanthine oxidase redox potentiometry), two-state binding fit. The note with it: read-out: Kd^app.

The structures appear in SMILES notation.

Results on two compounds are retold here after PMC3546729, “Electrochemical Characterization of Escherichia coli Adaptive Response Protein AidB” (International Journal of Molecular Sciences, 2012).

As for `Cc1cc2nc3c(=O)[nH]c(=O)nc-3n(C[C@H](O)[C@H](O)[C@H](O)COP(=O)(O)OP(=O)(O)OC[C@H]3O[C@@H](n4cnc5c(N)ncnc54)[C@H](O)[C@@H]3O)c2cc1C` [FAD], in experiment [1], the “UV-visible spectroscopy and redox potentiometry of bound flavin” value was “Reduction potentials of the AidB FAD cofactor were measured using the xanthine/xanthine oxidase system”. With `CC(C)CC(=O)SCCNC(=O)CCNC(=O)[C@H](O)C(C)(C)COP(=O)(O)OP(=O)(O)OC[C@H]1O[C@@H](n2cnc3c(N)ncnc32)[C@H](O)[C@@H]1OP(=O)(O)O` [IVCoA], in experiment [2], the Kd came out at 87 ± 27 µM.
